Experiments:
human GPR119 receptor = target: T1, human GPR119 receptor (Homo sapiens, UniProt Q8TDV5); test: Activity test for human GPR119 receptor (GeneBLAzer T-Rex GPR 119 CHO-K1 DA cells, fluorescence reporter); format: cell-based; settings: 5 hours treatment, ratio to vehicle control well; for activity at 0.1 µM / activity at 1 µM / activity at 10 µM / % Activation: human GPR119 CHO-K1 reporter cells; for activity at 0.1 µM / activity at 1 µM / activity at 10 µM: read-out: % Activation
T1 construct: host or cells: GeneBLAzer T-Rex GPR 119 CHO-K1 DA cells (CHO-K1)
T1 sequence (Q8TDV5 1-335): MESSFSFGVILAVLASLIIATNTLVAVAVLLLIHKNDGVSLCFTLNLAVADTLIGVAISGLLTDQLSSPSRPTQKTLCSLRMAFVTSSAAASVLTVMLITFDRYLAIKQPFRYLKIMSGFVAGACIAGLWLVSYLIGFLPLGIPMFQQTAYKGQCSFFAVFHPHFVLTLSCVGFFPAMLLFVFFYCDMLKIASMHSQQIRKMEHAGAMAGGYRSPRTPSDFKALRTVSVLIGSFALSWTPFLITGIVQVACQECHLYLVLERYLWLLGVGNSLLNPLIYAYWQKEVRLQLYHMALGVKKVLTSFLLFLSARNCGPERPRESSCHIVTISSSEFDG
Protocol: As a human GPR119 receptor expression cell for this test, the cell line “GeneBLAzer™ T-Rex GPR 119 CHO-K1 DA cells” that is commercially available from Invitrogen, was used. The cell was incubated in the DMEM media containing 1% dialyzed fetal bovine serum etc. The cell incubator was kept at constant temperature and constant humidity of 37° C., 5% CO2.
The human GPR119 receptor expressing cell was used to this test. Each of test compounds was added to be final concentrations of 0.1, 1, 10 μM in 96 well and tested in duplicate. A fixed amount of cell was added to each well of 96 well separately, and then treated with the test compound for 5 hours. After treatment of color development agent for 2 hours, the fluorescence value was determined with plate reader. To the luminous wavelength of control well, which was not treated with the agonist sample, but in which only a vehicle (i.e., cell) was contained, the ratio of the luminous wavelength of test well, which was treated with the agonist sample, was calculated, and then converted to obtain % value.
All the results were expressed as mean±SD, and each test groups and the control group were compared using student's t-test to adjudge the effects of each test groups.

GPR 119 Receptor = target: T2, GPR 119 Receptor (Mus musculus, UniProt Q7TQP3); test: Glucose tolerance test in normal mouse (animal test of activity for the GPR 119 receptor); format: in vivo; settings: normal male C57/6J Jms mice; for Decrease % of AUC at 10 mg/kg: oral glucose 2 g/kg, whole blood glucose AUC; for Decrease % of AUC (drop effect in blood glucose level): 10 mg/kg, oral 20% glucose 2 g/kg, whole blood glucose cAUC
T2 construct: from tissue; host or cells: whole animal: male C57/6J Jms mice (normal) or diet induced obesity C57BL/6J mice
T2 sequence (Q7TQP3 1-335): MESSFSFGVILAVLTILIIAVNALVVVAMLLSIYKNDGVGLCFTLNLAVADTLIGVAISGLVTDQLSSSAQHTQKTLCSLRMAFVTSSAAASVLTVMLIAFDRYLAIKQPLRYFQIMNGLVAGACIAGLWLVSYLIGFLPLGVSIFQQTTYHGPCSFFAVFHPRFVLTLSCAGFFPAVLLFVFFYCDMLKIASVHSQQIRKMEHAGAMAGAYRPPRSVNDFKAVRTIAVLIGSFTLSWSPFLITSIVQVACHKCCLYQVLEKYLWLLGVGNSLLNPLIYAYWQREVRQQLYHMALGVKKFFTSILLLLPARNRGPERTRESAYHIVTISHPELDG
Protocol: Male C57/6J Jms mice of 6-7 weeks of age were fasted for 16 hours before the start of glucose tolerance test. The experimental animal groups consist of: • A. a vehicle group (10% EtOH, 20% HPBCD in saline), • B. a positive control group administered with MBX-2982 (10 mg/kg), and • C. test groups administered with compound 516, 581, 586, 612, 640, 644 or etc. (10 mg/kg).
Before compound administration, that is, at 0 hour, whole blood glucose level was determined using a Glucometer (ACCU-CHEK, Roche). At 30 minutes after compound administration, whole blood glucose level was determined once again, and 20% glucose (2 g/kg/10 mL) was administered orally. Whole blood glucose level was determined at 20, 40, 60, 80, and 120 minutes after 20% glucose administration. Area under the curve (AUC) of whole blood glucose level was obtained using GraphPad Prism 5.0. The effect of glucose tolerance was adjudged with the corrected area under the curve (cAUC), on which the base value of glucose area under the curve was excluded.

| Structure (SMILES) | activity at 0.1 µM (human GPR119 receptor; test compound conc. 0.1 μM) [%] | activity at 1 µM (human GPR119 receptor; test compound conc. 1 μM) [%] | activity at 10 µM (human GPR119 receptor; test compound conc. 10 μM) [%] | Decrease % of AUC at 10 mg/kg (GPR 119 Receptor) [%] | maximum % activation (human GPR119 receptor; human GPR119 receptor expressing cell, test concentrations 0.1, 1, 10 μM) [%] | % Activation (human GPR119 receptor; test compound conc. 0.1 μM) [%] | % Activation (human GPR119 receptor; test compound conc. 1 μM) [%] | % Activation (human GPR119 receptor; test compound conc. 10 μM) [%] | Decrease % of AUC (drop effect in blood glucose level) (GPR 119 Receptor) [%] |
| --- | --- | --- | --- | --- | --- | --- | --- | --- | --- |
| CC(C)(F)CN1CCC(COc2cnc(-c3ccc(C(=O)N4CCC[C@H]4C(N)=O)c(F)c3)nc2)CC1 [Compound 1032, (S)-1-(2-fluoro-4-(5-((1-(2-fluoro-2-methylpropyl)piperidin-4-yl)methoxy)pyrimidin-2-yl)benzoyl)pyrrolidine-2-carboxamide] | 321 | 459 | 430 | 31 |  |  |  |  |  |
| CC(C)(F)CN1CCC(COc2cnc(-c3ccc(C(=O)N4CCC[C@H]4C(N)=O)c(F)c3)cn2)CC1 [Compound 944, (S)-1-(2-fluoro-4-(5-((1-(2-fluoro-2-methylpropyl)piperidin-4-yl)methoxy)pyrazine-2-yl)benzoyl)pyrrolidine-2-carboxamide] | 180 | 291 | 310 | 32 |  |  |  |  |  |
| CN(C)C(=O)c1ccc(-c2ccc(OCC3CCN(CC(C)(C)F)CC3)cc2)cc1 [Compound 516, 4′-((1-(2-fluoro-2-methylpropyl)piperidin-4-yl)methoxy)-N,N-dimethylbiphenyl-4-carboxamide] | 185 | 243 | 289 | 43 |  |  |  |  |  |
| NC(=O)[C@@H]1CCCN1C(=O)c1ccc(-c2ccc(OCC3CCN(CC4(C(F)(F)F)CC4)CC3)nc2)cc1 [Compound 586, (S)-1-(4-(6-((1-((1-(trifluoromethyl)cyclopropyl)methyl)piperidin-4-yl)methoxy)pyridine-3-yl)benzoyl)pyrrolidine-2-carboxamide] | 213 | 310 | 379 | 34 |  |  |  |  |  |
| CC(C)(F)CN1CCC(COc2ccc(-c3ccc(C(=O)N4CCC[C@H]4C(N)=O)c(F)c3)cn2)CC1 [Compound 658, (S)-1-(2-fluoro-4-(6-((1-(2-fluoro-2-methylpropyl)piperidin-4-yl)methoxy)pyridine-3-yl)benzoyl)pyrrolidine-2-carboxamide] | 289 | 248 | 311 | 38 |  |  |  |  |  |
| CC(C)(F)CN1CCC(COc2cnc(-c3ccc(C(=O)N4CCC[C@H]4C(N)=O)cc3)cn2)CC1 [Compound 950, (S)-1-(4-(5-((1-(2-fluoro-2-methylpropyl)piperidin-4-yl)methoxy)pyrazine-2-yl)benzoyl)pyrrolidine-2-carboxamide] | 191 | 232 | 307 | 39 |  |  |  |  |  |
| NC(=O)[C@@H]1CCCN1C(=O)c1ccc(-c2ccc(OCC3CCN(CC4(C(F)(F)F)CCC4)CC3)nc2)cc1 [Compound 581, (S)-1-(4-(6-((1-((1-(trifluoromethyl)cyclobutyl)methyl)piperidin-4-yl)methoxy)pyridine-3-yl)benzoyl)pyrrolidine-2-carboxamide] | 254 | 344 | 273 | 50 |  |  |  |  |  |
| CC(C)(F)CN1CCC(COc2ccc(-c3ccc(C(=O)N4CC[C@@H](O)C4)c(F)c3)nc2)CC1 [Compound 768, (R)-(2-fluoro-4-(5-((1-(2-fluoro-2-methylpropyl)piperidin-4-yl)methoxy)pyridine-2-yl)phenyl)(3-hydroxypyrrolidine-1-yl)methanone] | 162 | 260 | 313 | 40 |  |  |  |  |  |
| CC(C)(F)CN1CCC(COc2ccc(-c3ccc(C(=O)N4CC[C@H](O)C4)c(F)c3)cc2)CC1 [Compound 640, (S)-(3-fluoro-4′-((1-(2-fluoro-2-methylpropyl)piperidin-4-yl)methoxy)biphenyl-4-yl)(3-hydroxypyrrolidine-1-yl)methanone] |  |  |  | 52 |  |  |  |  |  |
| CCc1cnc(N2CCC(c3nc(COc4ccc(-n5cnnn5)cc4)cs3)CC2)nc1 [MBX-2982, reference compound] |  |  |  | 24 | 200 | 180 | 206 | 200 | 24 |
| CC(C)(F)CN1CCC(COc2ccc(-c3ccc(C(=O)N4CCC[C@@H](O)C4)cc3)cc2)CC1 [Compound 612, (R)-(4′-((1-(2-fluoro-2-methylpropyl)piperidin-4-yl)methoxy)biphenyl-4-yl)(3-hydroxypiperidin-1-yl)methanone] |  |  |  | 50 |  |  |  |  | 50 |
| CC(C)(F)CN1CCC(COc2cnc(-c3ccc(C(=O)N4CCCC[C@@H]4C(N)=O)c(F)c3)nc2)CC1 [Compound 1037, (R)-1-(2-fluoro-4-(5-((1-(2-fluoro-2-methylpropyl)piperidin-4-yl)methoxy)pyrimidin-2-yl)benzoyl)piperidin-2-carboxamide] | 223 | 478 | 439 | 42 |  |  |  |  |  |
| CC(C)(CN1CCC(COc2ccc(-c3ccc(C(=O)N4CCC[C@@H](O)C4)cc3)cn2)CC1)C(F)(F)F [Compound 829, (R)-(3-hydroxypiperidin-1-yl)(4-(6-((1-(3,3,3-trifluoro-2,2-dimethylpropyl)piperidin-4-yl)methoxy)pyridin-3-yl)phenyl)methanone] | 257 | 313 | 303 |  |  |  |  |  |  |
| CC(C)(F)CN1CCC(COc2ccc(-c3ccc(C(=O)N4CCC(F)(F)C4)cc3)cc2)CC1 [Compound 629, (3,3-difluoropyrrolidine-1-yl)(4′-((1-(2-fluoro-2-methylpropyl)piperidin-4-yl)methoxy)biphenyl-4-yl)methanone] | 199 | 229 | 269 |  |  |  |  |  |  |
| NC(=O)[C@@H]1CCCN1C(=O)c1ccc(-c2cnc(OCC3CCN(CC4(C(F)(F)F)CCC4)CC3)cn2)cc1 [Compound 1009, (S)-1-(4-(5-((1-((1-(trifluoromethyl)cyclobutyl)metb.yl)piperidin-4-yl)methoxy)pyrazine-2-yl)benzoyl)pyrrolidine-2-carboxamide] | 235 | 314 | 340 |  |  |  |  |  |  |

— patent publication US9944600B2, “Piperidine derivatives for GPR119 agonist” (CHONG KUN DANG PHARMACEUTICAL CORP., priority 2012, dated 2018)
